1 molecule from ChEMBL document CHEMBL4311992, “Discovery of 3-(((9H-purin-6-yl)amino)methyl)-4,6-dimethylpyridin-2(1H)-one derivatives as novel tubulin polymerization inhibitors for treatment of cancer” (Eur J Med Chem, 2019) can be followed below.

The structures appear in SMILES notation.

The test system of data set [1] is Epidermal growth factor receptor (Homo sapiens), P00533 [L861Q]. The experiment in a line: Inhibition of recombinant human EGFR L861Q mutant (696 to end residues) assessed as residual activity at 10 uM using poly(Glu, Tyr) 4:1 as substrate measured after 40 mins in presence of [gamma33P]ATP by scintillation counting method.
In data set [2] the target is Dual specificity protein kinase CLK1 (Homo sapiens) (UniProt P49759). Briefly: Inhibition of recombinant human CLK1 (130 to end residues) assessed as residual activity at 10 uM using ERMRPRKRQGSVRRRV as substrate measured after 40 mins in presence of [gamma33P]ATP by scintillation counting method.
Data set [3] deals with Misshapen-like kinase 1 (Homo sapiens) (UniProt Q8N4C8). The experiment in a line: Inhibition of recombinant human MINK (1 to 310 residues) assessed as residual activity at 10 uM using myelin basic protein as substrate measured after 40 mins in presence of [gamma33P]ATP by scintillation counting method.
Data set [4] deals with Dual specificity mitogen-activated protein kinase kinase 1 (Homo sapiens) (UniProt Q02750). Briefly: Inhibition of recombinant full-length human MEK1 assessed as residual activity at 10 uM using unactive MAPK2 as substrate measured after 40 mins in presence of [gamma33P]ATP by scintillation counting method.
A further data set relates to SW-620. The experiment in a line: Induction of apoptosis in human SW620 cells assessed as late apoptotic cells at 25 nM measured after 48 hrs by Annexin V-FITC/propidium iodide staining-based flow cytometry (reference value: 1.8%). It is filed as functional. Background: In flow cytometry, cells or beads pass a laser one at a time.
Data set [5] deals with Tyrosine-protein kinase Lck (Homo sapiens) (UniProt P06239). Briefly: Inhibition of recombinant full-length human activated Lck assessed as residual activity at 10 uM using KVEKIGEGTYGVVYK as substrate measured after 40 mins in presence of [gamma33P]ATP by scintillation counting method.
Data set [6] has as its target Serine/threonine-protein kinase 26 (Homo sapiens) (UniProt Q9P289). The experiment in a line: Inhibition of recombinant human MST4 (4 to 304 residues) assessed as residual activity at 10 uM using RLGRDKYKTLRQIRQ as substrate measured after 40 mins in presence of [gamma33P]ATP by scintillation counting method.
The species entered for data set [7] is Homo sapiens. Briefly: Inhibition of human activated Tec F514V mutant (174 to end residues) using EFPIYDFLPAKKK as substrate measured after 40 mins in presence of [gamma33P]ATP by scintillation counting method. Details: scale not given: the % may be the effect or the level left.
The target of data set [8] is Serine/threonine-protein kinase N2 (Homo sapiens) (UniProt Q16513). The experiment in a line: Inhibition of human PRK2 (501 to end residues) using AKRRRLSSLRA as substrate measured after 40 mins in presence of [gamma33P]ATP by scintillation counting method. Details: scale not given: the % may be the effect or the level left.
Data set [9] is filed under the species Homo sapiens. The experiment in a line: Inhibition of recombinant full-length human PKBalpha S478G mutant assessed as residual activity at 10 uM using GRPRTSSFAEGKK as substrate measured after 40 mins in presence of [gamma33P]ATP by scintillation counting method.
Data set [10] has as its target Serine/threonine-protein kinase 35 (Homo sapiens) (UniProt Q8TDR2). Briefly: Inhibition of recombinant full length human CLIK1 assessed as residual activity at 10 uM using RSRSRSRSRSRSRSR as substrate measured after 40 mins in presence of [gamma33P]ATP by scintillation counting method.
The test system of data set [11] is Tyrosine-protein kinase Blk (Homo sapiens), P51451 [UNDEFINED MUTATION]. Briefly: Inhibition of full-length recombinant human BLK M287V mutant assessed as residual activity at 10 uM using poly(Glu, Tyr) 4:1 as substrate measured after 40 mins in presence of [gamma33P]ATP by scintillation counting method.
In data set [12] the target is Hepatocyte growth factor receptor (Homo sapiens) (UniProt P08581). The experiment in a line: Inhibition of recombinant human MET A1209G/V1290L mutant (974 to end residues) assessed as residual activity at 10 uM using KKKGQEEEYVFIE as substrate measured after 40 mins in presence of [gamma33P]ATP by scintillation counting method.
Data set [13] deals with Eukaryotic elongation factor 2 kinase (Homo sapiens), O00418 [H23R]. The experiment in a line: Inhibition of recombinant human EEF2K H23R mutant (2 to end residues) assessed as residual activity at 10 uM using RKKFGESEKTKTKEFL as substrate measured after 40 mins in presence of [gamma33P]ATP by scintillation counting method.
The target in data set [14] is Vascular endothelial growth factor receptor 2 (Homo sapiens) (UniProt P35968). The experiment in a line: Inhibition of recombinant human KDR (790 to end residues) assessed as residual activity at 10 uM using myelin basic protein substrate measured after 40 mins in presence of [gamma33P]ATP by scintillation counting method.
For data set [15], the system named is Protein kinase C eta type (Homo sapiens), P24723 [UNDEFINED MUTATION]. Briefly: Inhibition of recombinant human PKCeta V108L/G109R/L392Q mutant (2 to end residues) assessed as residual activity at 10 uM using ERMRPRKRQGSVRRRV as substrate measured after 40 mins in presence of [gamma33P]ATP by scintillation counting method.
Data set [16] addresses Serine/threonine-protein kinase MAK (Homo sapiens) (UniProt P20794). Briefly: Inhibition of recombinant full-length human MAK assessed as residual activity at 10 uM using RRRFRPASPLRGPPK as substrate measured after 120 mins in presence of [gamma33P]ATP by scintillation counting method.
Data set [17] concerns the target Serine/threonine-protein kinase Chk1 (Homo sapiens) (UniProt O14757). Briefly: Inhibition of recombinant full length human CHK1 assessed as residual activity at 10 uM using KKKVSRSGLYRSPSMPENLNRPR as substrate measured after 40 mins in presence of [gamma33P]ATP by scintillation counting method.
Data set [18] is described as follows: Toxicity in nude BALB/c mouse assessed as change in RBC level at 40 to 80 mg/kg, po once daily for 4 weeks measured post-last dose. It is filed as organism-based. To be noted: in vivo, 672 h.
Another data set relates to HCT-116. Briefly: Induction of apoptosis in human HCT116 cells assessed as viable cells at 50 nM measured after 48 hrs by Annexin V-FITC/propidium iodide staining-based flow cytometry (reference value: 94.5%). It is filed as functional. To be noted: HCT-116, 48 h, read-out: Activity.
Data set [19] is filed under the species Homo sapiens. Briefly: Inhibition of recombinant human Plk4 S34T mutant (1 to 273 residues) assessed as residual activity at 10 uM using casein as substrate measured after 40 mins in presence of [gamma33P]ATP by scintillation counting method.
Data set [20] has as its target Serine/threonine-protein kinase SIK2 (Homo sapiens) (UniProt Q9H0K1). The experiment in a line: Inhibition of human SIK2 (1 to 276 residues) using KKKVSRSGLYRSPSMPENLNRPR as substrate measured after 40 mins in presence of [gamma33P]ATP by scintillation counting method. Details: scale not given: the % may be the effect or the level left.
The subject of data set [21] is Casein kinase I isoform gamma-3 (Homo sapiens), Q9Y6M4 [UNDEFINED MUTATION]. The experiment in a line: Inhibition of recombinant human CK1gamma3 K91E/R174G/E302D mutant (1 to 330 residues) assessed as residual activity at 10 uM using KRRRALS(p)VASLPGL as substrate measured after 40 mins in presence of [gamma33P]ATP by scintillation counting method.

Chain of Serine/threonine-protein kinase Chk1 (Homo sapiens) (O14757 whole entry): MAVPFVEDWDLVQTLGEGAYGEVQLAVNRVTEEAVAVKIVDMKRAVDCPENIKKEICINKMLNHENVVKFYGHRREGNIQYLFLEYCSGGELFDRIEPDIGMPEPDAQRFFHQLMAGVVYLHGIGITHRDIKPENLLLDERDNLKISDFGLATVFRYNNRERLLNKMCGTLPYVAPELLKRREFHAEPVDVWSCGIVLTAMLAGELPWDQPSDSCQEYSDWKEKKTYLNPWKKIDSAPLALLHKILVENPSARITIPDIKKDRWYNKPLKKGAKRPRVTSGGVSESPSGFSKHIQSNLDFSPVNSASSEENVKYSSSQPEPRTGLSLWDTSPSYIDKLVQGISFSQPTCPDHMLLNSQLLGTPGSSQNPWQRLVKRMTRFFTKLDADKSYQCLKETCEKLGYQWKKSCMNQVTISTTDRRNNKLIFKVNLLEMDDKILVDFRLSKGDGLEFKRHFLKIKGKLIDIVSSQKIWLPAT
Chain of Misshapen-like kinase 1 (Homo sapiens) (Q8N4C8 whole entry, looked up, the tested form may be a part): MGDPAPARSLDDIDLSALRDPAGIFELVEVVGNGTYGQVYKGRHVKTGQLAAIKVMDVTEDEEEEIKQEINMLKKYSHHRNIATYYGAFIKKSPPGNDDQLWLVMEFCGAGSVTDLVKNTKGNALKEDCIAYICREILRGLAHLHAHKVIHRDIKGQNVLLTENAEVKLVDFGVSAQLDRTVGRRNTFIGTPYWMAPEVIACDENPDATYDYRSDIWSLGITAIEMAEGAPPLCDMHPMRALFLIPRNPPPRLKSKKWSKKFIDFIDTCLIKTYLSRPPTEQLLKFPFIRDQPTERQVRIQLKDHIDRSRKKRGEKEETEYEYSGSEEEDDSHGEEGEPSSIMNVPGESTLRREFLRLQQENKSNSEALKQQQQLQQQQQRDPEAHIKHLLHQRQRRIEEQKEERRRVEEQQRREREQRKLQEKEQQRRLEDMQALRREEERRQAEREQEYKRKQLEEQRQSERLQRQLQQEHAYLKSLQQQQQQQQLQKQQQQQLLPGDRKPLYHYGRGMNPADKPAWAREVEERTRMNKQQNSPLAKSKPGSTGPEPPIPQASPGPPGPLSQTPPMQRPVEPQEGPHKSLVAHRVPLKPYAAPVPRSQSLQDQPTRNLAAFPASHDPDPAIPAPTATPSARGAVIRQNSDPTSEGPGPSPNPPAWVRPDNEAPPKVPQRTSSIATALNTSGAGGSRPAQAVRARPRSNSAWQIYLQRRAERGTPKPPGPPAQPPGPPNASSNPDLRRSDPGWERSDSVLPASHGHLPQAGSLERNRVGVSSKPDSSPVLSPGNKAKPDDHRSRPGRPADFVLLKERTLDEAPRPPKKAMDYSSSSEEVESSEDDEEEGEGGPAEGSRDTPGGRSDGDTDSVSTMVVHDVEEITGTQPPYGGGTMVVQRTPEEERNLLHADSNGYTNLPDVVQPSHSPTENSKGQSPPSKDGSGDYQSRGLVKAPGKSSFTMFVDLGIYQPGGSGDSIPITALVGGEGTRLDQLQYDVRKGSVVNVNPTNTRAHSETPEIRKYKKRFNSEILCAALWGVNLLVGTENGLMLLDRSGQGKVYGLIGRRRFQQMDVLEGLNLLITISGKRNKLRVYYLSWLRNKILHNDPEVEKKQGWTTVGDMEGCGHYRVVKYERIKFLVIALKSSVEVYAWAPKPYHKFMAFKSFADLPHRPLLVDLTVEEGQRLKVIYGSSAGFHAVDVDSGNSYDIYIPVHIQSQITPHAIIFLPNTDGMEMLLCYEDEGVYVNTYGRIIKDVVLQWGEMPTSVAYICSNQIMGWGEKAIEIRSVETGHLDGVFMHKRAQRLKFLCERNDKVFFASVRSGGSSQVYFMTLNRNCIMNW
Chain of Dual specificity mitogen-activated protein kinase kinase 1 (Homo sapiens) (Q02750 whole entry): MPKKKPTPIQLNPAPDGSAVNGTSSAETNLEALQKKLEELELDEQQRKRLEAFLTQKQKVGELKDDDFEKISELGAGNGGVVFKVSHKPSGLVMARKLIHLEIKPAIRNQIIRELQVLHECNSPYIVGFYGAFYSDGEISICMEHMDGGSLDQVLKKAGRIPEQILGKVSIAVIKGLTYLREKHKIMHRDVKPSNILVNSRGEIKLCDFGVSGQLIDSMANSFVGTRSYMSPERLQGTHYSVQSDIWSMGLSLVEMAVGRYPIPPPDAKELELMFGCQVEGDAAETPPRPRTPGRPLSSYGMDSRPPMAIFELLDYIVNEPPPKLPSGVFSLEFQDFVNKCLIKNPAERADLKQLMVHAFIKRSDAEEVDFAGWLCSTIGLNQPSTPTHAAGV
Chain of Protein kinase C eta type (Homo sapiens), P24723 [UNDEFINED MUTATION] (P24723 whole entry, looked up, stated change not applied): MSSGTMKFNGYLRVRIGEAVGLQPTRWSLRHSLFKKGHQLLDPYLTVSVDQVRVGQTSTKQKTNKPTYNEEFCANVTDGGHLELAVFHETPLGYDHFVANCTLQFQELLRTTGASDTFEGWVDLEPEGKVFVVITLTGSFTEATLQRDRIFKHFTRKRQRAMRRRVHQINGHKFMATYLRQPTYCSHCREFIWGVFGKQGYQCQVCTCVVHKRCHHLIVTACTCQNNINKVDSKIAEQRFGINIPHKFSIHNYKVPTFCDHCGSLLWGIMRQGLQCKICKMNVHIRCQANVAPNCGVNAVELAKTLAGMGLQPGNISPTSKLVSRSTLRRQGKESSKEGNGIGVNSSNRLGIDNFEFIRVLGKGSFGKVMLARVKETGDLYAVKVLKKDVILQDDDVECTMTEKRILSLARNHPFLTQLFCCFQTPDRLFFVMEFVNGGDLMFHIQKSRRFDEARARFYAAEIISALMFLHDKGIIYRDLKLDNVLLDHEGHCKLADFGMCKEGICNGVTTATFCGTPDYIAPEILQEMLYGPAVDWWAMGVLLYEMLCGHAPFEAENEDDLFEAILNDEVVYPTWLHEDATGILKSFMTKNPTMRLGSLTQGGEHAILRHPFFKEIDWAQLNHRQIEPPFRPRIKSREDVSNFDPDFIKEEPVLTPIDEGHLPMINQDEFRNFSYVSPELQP
Chain of Casein kinase I isoform gamma-3 (Homo sapiens), Q9Y6M4 [UNDEFINED MUTATION] (Q9Y6M4 whole entry, looked up, stated change not applied, the tested form may be a part, canonical isoform): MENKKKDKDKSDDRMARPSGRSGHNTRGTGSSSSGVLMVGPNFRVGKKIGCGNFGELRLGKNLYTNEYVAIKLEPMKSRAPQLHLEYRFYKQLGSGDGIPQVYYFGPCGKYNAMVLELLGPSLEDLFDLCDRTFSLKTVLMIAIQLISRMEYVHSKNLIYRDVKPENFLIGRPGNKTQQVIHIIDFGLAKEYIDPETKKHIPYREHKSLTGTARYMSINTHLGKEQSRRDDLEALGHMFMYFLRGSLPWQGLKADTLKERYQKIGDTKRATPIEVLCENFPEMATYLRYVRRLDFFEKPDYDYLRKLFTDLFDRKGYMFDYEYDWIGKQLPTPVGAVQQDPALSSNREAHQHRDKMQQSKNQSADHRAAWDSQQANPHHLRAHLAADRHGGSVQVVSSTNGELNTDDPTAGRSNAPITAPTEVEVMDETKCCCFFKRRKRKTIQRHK
Chain of Tyrosine-protein kinase Lck (Homo sapiens) (P06239 2-509 limits assumed): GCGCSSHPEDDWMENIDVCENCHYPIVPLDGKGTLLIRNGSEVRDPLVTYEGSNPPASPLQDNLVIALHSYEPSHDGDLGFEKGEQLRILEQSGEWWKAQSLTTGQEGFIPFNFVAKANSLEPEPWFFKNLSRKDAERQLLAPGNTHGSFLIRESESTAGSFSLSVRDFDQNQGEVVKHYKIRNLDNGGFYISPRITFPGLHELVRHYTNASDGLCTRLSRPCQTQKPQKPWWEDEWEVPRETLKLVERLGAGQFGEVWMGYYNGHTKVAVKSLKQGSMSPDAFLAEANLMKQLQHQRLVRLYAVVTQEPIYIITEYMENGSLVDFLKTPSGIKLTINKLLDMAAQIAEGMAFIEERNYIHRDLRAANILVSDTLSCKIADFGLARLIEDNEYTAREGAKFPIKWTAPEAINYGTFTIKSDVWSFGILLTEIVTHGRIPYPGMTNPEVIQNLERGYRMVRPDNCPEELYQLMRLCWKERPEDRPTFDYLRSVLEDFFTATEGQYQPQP
Chain of Serine/threonine-protein kinase 35 (Homo sapiens) (Q8TDR2 whole entry): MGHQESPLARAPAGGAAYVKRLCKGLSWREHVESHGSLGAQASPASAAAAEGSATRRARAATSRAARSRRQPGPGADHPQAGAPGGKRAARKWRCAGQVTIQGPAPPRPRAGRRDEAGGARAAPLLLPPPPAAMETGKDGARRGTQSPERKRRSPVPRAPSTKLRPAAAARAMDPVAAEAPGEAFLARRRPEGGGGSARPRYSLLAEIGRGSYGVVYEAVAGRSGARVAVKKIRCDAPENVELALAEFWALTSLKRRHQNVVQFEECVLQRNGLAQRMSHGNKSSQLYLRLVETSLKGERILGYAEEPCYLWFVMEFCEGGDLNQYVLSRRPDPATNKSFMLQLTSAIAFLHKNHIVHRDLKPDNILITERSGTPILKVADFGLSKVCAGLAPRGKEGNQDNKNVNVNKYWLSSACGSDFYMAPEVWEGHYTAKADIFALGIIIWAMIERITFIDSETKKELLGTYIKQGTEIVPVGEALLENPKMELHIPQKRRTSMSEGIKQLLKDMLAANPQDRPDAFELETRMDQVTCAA
Chain of Tyrosine-protein kinase Blk (Homo sapiens), P51451 [UNDEFINED MUTATION] (P51451 whole entry, looked up, stated change not applied): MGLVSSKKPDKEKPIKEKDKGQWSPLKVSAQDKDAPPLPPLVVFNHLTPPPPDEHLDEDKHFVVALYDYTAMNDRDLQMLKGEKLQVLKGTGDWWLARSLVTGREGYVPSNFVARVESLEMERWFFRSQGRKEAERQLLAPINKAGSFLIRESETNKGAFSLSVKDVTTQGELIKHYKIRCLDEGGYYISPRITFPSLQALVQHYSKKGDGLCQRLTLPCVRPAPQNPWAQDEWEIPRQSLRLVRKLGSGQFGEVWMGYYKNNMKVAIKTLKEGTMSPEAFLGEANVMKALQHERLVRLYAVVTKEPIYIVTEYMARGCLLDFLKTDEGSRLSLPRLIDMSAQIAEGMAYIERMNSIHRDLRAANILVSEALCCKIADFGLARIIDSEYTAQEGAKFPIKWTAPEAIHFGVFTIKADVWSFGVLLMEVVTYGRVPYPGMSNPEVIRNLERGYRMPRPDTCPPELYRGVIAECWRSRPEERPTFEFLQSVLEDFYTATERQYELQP

In the case of `Cc1cc(C)c(CNc2nc(Cl)nc3c2ncn3C2CCCC2)c(=O)[nH]1`, the Activity in [1] was found to be 98.5%; in [2], 108%; in [3], 94%; in data set [4] it was 100%; in the data set on SW-620 it was 4.23%; in data set [5], 102%. Besides, the Activity in [6] stood at 132%; in the data set listed under Homo sapiens [7] it was 96.5%; in data set [8], 116%; in the data set filed under Homo sapiens [9], 105%; in data set [10], 65.5%; in [11], 115%. In addition, the Activity was determined as 80% in data set [12]; 104% in data set [13]; 107% in data set [14]; 98.5% in data set [15]; 106% in [16]; 106% in data set [17]. The Activity entry in data set [18] was “Non-Toxic”; in the data set listed under Homo sapiens [19], 98.5%; in data set [20], 97%; in data set [21], 106%. Besides, in the data set on HCT-116, the viability at 0.05 µM turned out to be 42.6%.
